{"source": "ChEMBL document CHEMBL1129420", "about": "(J Med Chem, 1996)", "experiment": "Concentration for hnps- Phospholipase A2 was evaluated using radioligand [3H]arachidonate binding assay in Escherichia coli membranes", "type": "cell membranes"}
{"smiles": "CCCCCCCCOCC(COP(=O)(O)OCCN)OP(=O)(O)CCCCCCC", "note": "(stereo unspecified)", "values": [{"measurement": "IC50", "result": 200, "unit": "nM"}]}
